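A five-concentration, 48-hour dose response in 96-well plates underlies each endpoint, interpolated linearly between surrounding concentrations. TGI denotes the concentration required for complete inhibition of growth.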
Experiments:
Assay in all cases: DTP human tumour cell line panel, 48 h
COLO 205 colon = tested on: COLO 205 colon
HCT-116 colon = tested on: HCT-116 colon
HOP-62 NSCLC = tested on: HOP-62 NSCLC
IGROV1 ovarian = tested on: IGROV1 ovarian
OVCAR-3 ovarian = tested on: OVCAR-3 ovarian
OVCAR-5 ovarian = tested on: OVCAR-5 ovarian
OVCAR-8 ovarian = tested on: OVCAR-8 ovarian
SF-295 CNS = tested on: SF-295 CNS
UO-31 renal = tested on: UO-31 renal

Compound | TGI (COLO 205 colon) | TGI (HCT-116 colon) | TGI (HOP-62 NSCLC) | TGI (IGROV1 ovarian) | TGI (OVCAR-3 ovarian) | TGI (OVCAR-5 ovarian) | TGI (OVCAR-8 ovarian) | TGI (SF-295 CNS) | TGI (UO-31 renal)
Cc1cc2c(c(C(N)=O)c1C)-c1ccccc1C2=O | > 100 µM | > 100 µM | > 100 µM | > 100 µM | > 100 µM | > 100 µM | > 100 µM | > 100 µM | > 100 µM
CC(C(=O)c1ccc(Cl)cc1)/C(=N/NC(=O)NN)C(=O)Nc1cccc(C(F)(F)F)c1 (stereo not given) | > 100 µM | > 100 µM | – | > 100 µM | > 100 µM | > 100 µM | > 100 µM | > 100 µM | > 100 µM
Cc1ccccc1C1=[N+]([O-])c2ccc(Cl)cc2C1=O | 20.2 µM | 19.5 µM | 42.6 µM | 29.8 µM | 7.17 µM | 37.8 µM | 19.3 µM | 29.1 µM | 31.2 µM
COC(=O)/C([Se]c1c(C)cc(C)cc1C)=C(/[Se]c1c(C)cc(C)cc1C)C(=O)OC | > 100 µM | > 100 µM | > 100 µM | > 100 µM | > 100 µM | > 100 µM | > 100 µM | > 100 µM | > 100 µM
CCC1CN2CCc3cc(OC)c(OC)cc3C2CC1CC1c2cc(OC)c(OC)cc2CCN1C(=O)C1CCCN1 (stereo not given) | 25.7 µM | 55 µM | 71.2 µM | 71.7 µM | 90 µM | > 100 µM | > 100 µM | > 100 µM | 47.4 µM
COc1cc(/C=C2\[C@H]3c4c(c(OC)c(C)c(OC)c4OC)CC(C(=O)N2Cc2ccccc2)N3C)c(OC)c(C)c1OC | 32.5 µM | > 100 µM | 35.1 µM | 51.6 µM | 31.2 µM | 71.8 µM | > 100 µM | 41.5 µM | 41.8 µM
CCOC(=O)NC(=O)c1cn(C2CCCCC2)c(=O)[nH]c1=O | > 100 µM | > 100 µM | > 100 µM | > 100 µM | > 100 µM | > 100 µM | > 100 µM | > 100 µM | > 100 µM
CC(C)CCC[C@@H](C)C1CCC2[C@@H]3CC=C4C[C@@H](C(=O)NCCN(C)C)CC[C@]4(C)C3CC[C@@]21C (stereo not given in full) | 38.3 µM | – | 61.2 µM | > 100 µM | > 100 µM | > 100 µM | > 100 µM | > 100 µM | 55.1 µM
COc1c(C)n(CCO)ccc1=O | > 100 µM | > 100 µM | > 100 µM | – | > 100 µM | > 100 µM | > 100 µM | > 100 µM | > 100 µM
Nc1ccccc1C(=O)/C=C/c1c(O)ccc2ccccc12 | > 100 µM | > 100 µM | > 100 µM | > 100 µM | > 100 µM | > 100 µM | > 100 µM | > 100 µM | > 100 µM
Cc1[nH]c2ccccc2c1C1Cc2ccccc2N1C(=O)C#Cc1ccc([N+](=O)[O-])cc1 (stereo not given) | – | > 100 µM | > 100 µM | > 100 µM | > 100 µM | > 100 µM | > 100 µM | > 100 µM | > 100 µM
Cn1c(=O)nc2n(-c3cc(C(F)(F)F)cc(C(F)(F)F)c3)c3ccccc3nc-2c1=O | > 100 µM | > 100 µM | > 100 µM | > 100 µM | > 100 µM | > 100 µM | > 100 µM | > 100 µM | > 100 µM
CC(=O)N1CCN(c2ccc(OCC3COC(Cn4ccnc4)(c4ccc(Cl)cc4Cl)O3)cc2)CC1 (stereo not given) | 40.8 µM | 76.6 µM | > 100 µM | > 100 µM | > 100 µM | > 100 µM | > 100 µM | – | 91.9 µM
COC(=O)C(=O)C(C(C)=O)C(=O)NCc1ccc(OC)c(OC)c1 (stereo not given) | > 100 µM | > 100 µM | > 100 µM | > 100 µM | > 100 µM | > 100 µM | > 100 µM | > 100 µM | > 100 µM
CCOP(=O)(OCC)C(C(=O)OC)C(=O)C(=O)Nc1ccc(Cl)cc1Cl (stereo not given) | > 100 µM | > 100 µM | > 100 µM | > 100 µM | > 100 µM | > 100 µM | > 100 µM | – | > 100 µM
Cc1ccc(C)c(N2C/C(=N\NC(=O)CC#N)C(c3nc4ccccc4s3)C(=O)C2=O)c1 (stereo not given) | > 100 µM | > 100 µM | > 100 µM | > 100 µM | > 100 µM | – | > 100 µM | > 100 µM | > 100 µM
Nc1c(-c2ccccc2-c2c(N)[n+]([O-])c3ccccc3[n+]2[O-])[n+]([O-])c2ccccc2[n+]1[O-] | 23.6 µM | 74.6 µM | – | – | > 100 µM | > 100 µM | 81.5 µM | > 100 µM | > 100 µM
CCN1c2ccccc2-c2c3c1cc(C)cc3c1ccccc1[n+]2CC | – | 3.89 µM | 5.15 µM | – | 2.39 µM | 4.1 µM | 1.86 µM | 3.21 µM | 20.8 µM
CC1=C(C#N)C(=O)CC(c2ccc(Cl)cc2)N(C)N1 (stereo not given) | – | > 100 µM | > 100 µM | – | – | > 100 µM | – | > 100 µM | –

Source: PubChem BioAssay (NCI)
